The record followed here is ChEMBL document CHEMBL1201862, “PubChem BioAssay data set” (2004).

Test [1] deals with T1, Mannose-6-phosphate isomerase (Homo sapiens, UniProt P34949).
T1 sequence (P34949 whole entry): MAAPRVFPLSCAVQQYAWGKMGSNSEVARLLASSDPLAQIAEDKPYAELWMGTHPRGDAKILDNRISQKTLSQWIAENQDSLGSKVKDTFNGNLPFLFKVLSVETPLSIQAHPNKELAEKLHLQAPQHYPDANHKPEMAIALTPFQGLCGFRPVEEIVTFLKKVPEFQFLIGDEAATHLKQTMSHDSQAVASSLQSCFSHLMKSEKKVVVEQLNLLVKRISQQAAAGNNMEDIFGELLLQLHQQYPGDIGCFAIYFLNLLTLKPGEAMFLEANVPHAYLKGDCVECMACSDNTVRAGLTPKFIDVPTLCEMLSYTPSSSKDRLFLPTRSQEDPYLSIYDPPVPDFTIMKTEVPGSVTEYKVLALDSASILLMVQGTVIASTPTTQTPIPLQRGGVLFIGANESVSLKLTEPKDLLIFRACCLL
The experiment in a line: MPI inhibition at elevated mannose 6-phosphate – biochemical, fluorescence intensity, high mannose 6-phosphate, primary screen (AID 1220).

For test [2], the target named is T2, Sentrin-specific protease 6 (Homo sapiens, UniProt Q9GZR1).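 Also: Luminescence-based dose-response confirmatory assay of SENP6 inhibition, following up an ultra-high-throughput screen.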
T2 sequence (Q9GZR1 whole entry): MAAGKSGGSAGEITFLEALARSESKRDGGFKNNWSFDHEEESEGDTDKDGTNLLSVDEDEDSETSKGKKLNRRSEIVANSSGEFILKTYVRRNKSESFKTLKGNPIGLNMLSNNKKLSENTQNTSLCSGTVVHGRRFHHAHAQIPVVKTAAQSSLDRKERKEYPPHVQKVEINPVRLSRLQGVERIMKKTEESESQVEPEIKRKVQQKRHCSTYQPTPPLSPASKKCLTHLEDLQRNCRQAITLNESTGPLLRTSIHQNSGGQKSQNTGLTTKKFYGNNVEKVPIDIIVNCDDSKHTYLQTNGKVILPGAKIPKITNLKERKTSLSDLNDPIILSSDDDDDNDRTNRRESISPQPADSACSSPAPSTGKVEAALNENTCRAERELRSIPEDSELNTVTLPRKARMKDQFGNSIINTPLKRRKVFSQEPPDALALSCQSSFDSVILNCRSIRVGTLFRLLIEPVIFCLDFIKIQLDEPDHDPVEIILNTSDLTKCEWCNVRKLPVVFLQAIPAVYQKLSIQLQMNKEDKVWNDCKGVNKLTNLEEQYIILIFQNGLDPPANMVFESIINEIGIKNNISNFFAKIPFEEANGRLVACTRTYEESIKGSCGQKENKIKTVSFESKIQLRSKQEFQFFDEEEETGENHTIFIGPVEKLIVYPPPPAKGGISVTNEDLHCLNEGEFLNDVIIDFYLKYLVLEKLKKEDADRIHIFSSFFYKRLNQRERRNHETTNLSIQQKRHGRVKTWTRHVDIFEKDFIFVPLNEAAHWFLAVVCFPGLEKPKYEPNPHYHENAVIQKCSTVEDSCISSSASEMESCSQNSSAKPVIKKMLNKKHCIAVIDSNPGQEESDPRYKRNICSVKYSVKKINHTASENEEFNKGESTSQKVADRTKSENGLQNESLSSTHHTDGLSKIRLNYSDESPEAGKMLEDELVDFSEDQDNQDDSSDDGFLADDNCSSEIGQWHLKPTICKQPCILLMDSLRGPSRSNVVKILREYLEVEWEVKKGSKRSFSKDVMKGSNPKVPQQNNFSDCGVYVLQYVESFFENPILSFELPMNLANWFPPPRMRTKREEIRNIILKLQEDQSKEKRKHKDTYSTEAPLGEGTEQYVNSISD
In kind it is functional.

Test [3] has as its target T3, Sentrin-specific protease 8 (Homo sapiens, UniProt Q96LD8).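 Also: luminescence read-out of SENP8 inhibition, dose-response confirmation following an ultra-high-throughput screen.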
T3 sequence (Q96LD8 whole entry): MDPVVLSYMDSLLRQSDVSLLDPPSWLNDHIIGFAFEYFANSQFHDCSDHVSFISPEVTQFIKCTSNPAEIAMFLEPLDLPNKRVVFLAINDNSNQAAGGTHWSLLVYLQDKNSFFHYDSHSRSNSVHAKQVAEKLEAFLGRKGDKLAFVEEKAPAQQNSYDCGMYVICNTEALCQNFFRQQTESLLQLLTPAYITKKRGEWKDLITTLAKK
Format: functional.

A further test has as its target T4, Caspase-3 (Homo sapiens, UniProt P42574).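 Also: Dose-response selectivity test against caspase-3 for candidate inhibitors of sentrin-specific proteases (SENPs).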
T4 sequence (P42574 whole entry): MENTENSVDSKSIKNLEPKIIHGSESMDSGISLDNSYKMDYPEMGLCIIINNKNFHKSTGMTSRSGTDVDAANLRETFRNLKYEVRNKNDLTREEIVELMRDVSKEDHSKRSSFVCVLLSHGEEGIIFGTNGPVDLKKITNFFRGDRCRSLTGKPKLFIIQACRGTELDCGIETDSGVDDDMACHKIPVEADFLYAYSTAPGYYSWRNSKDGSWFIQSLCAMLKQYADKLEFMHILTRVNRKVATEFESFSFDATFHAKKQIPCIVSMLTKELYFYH
Format: functional.

Test [4] addresses T5, Sentrin-specific protease 7 (Homo sapiens, UniProt Q9BQF6).
T5 sequence (Q9BQF6 whole entry): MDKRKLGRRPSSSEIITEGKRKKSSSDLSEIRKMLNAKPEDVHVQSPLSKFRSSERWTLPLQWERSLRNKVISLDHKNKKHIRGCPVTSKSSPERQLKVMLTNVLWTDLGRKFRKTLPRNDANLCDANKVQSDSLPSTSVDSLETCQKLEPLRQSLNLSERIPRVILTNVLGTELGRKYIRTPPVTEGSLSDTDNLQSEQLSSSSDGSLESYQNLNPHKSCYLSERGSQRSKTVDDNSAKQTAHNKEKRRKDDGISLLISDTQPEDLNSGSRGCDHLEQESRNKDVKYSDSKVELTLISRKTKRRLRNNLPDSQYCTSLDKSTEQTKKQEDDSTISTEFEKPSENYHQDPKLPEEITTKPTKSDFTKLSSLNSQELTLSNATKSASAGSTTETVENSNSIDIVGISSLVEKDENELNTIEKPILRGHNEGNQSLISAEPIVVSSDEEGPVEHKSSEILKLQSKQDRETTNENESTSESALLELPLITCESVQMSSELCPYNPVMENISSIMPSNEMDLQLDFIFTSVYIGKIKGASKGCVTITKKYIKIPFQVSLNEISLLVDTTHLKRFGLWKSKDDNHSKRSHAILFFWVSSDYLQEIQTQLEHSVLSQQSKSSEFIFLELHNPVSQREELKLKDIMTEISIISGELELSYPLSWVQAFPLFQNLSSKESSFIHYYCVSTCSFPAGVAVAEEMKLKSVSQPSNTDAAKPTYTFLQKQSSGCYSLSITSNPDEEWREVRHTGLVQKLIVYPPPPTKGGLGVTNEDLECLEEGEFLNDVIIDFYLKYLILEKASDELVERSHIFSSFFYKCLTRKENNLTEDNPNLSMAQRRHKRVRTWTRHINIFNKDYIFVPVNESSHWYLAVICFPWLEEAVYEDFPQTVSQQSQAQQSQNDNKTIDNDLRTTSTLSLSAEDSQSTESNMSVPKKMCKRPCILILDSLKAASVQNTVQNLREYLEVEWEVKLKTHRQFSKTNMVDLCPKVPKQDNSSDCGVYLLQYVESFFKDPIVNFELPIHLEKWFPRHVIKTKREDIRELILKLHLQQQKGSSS
Format: functional.

Test [5] concerns the target T6, Heat shock factor protein 1 (Mus musculus, UniProt P38532).
T6 sequence (P38532 whole entry): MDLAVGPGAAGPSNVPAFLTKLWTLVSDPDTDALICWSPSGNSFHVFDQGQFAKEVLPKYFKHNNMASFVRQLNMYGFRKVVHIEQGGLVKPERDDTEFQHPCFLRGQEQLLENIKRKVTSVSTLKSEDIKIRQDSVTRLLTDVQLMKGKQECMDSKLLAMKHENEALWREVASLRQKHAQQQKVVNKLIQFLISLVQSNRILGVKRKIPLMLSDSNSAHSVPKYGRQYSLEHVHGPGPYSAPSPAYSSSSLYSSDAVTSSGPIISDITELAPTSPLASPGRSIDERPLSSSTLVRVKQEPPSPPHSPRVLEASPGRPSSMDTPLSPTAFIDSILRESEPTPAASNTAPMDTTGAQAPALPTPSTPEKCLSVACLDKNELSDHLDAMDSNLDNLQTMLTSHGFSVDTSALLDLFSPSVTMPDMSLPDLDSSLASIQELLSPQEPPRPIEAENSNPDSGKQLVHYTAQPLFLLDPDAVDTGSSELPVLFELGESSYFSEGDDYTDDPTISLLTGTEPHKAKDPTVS
The test is described as follows: enhancement of HSF1-driven luciferase signal – cell-based, NIH3T3, luminescence, dose retest, confirmation (AID 435004).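 Also: stress induced by proteasome inhibitor MG132 added 30 min after compound; luciferase reporter driven by HSF1 response element in NIH3T3 cells; actives raise luminescence as potentiators of the MG132 stress response.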 In kind it is functional.

Test [6] can be described thus: blockers of bursicon-stimulated LGR2 cAMP reporter – cell-based, HEK293, CRE-luciferase reporter, cherry pick, set 2, dose response (AID 743343).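 Also: transfected cells were stimulated with diluted bursicon conditioned medium after compound addition.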 In kind it is functional.
A short description of test [7]: blockade of melanocortin 4 receptor signaling – cell-based, plate reader, cherry pick, counter-screen for LGR2 antagonist project, dose response (AID 743444).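 Also: transfected HEK 293 cells stimulated with alpha-MSH peptide; potency of inhibitors of the alpha-MSH evoked signal.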 In kind it is functional.
Another test deals with H9c2. The experiment in a line: cells. Format: functional, cell-based. The note with it: Rattus norvegicus, H9c2, Myocardium.

The source made the active and inactive calls. Rule as the data show it, for most assays here: actives have a measured IC50 and inactives only a lower limit.

`Cc1ccc(S(=O)(=O)N(C)C)cc1NC(S)=Nc1ccc2c[nH]nc2c1`: the IC50 in test [1] is recorded as > 50 µM (not active).
As for `CCOc1ccc(-n2nc3cc(C)c(N)cc3n2)cc1`, the IC50 in test [2] was 6.21 µM (active); in test [3], 59.3 µM (active); on Caspase-3, 7.93 µM (active); in test [4], 2.94 µM (active).
Consider `NC(=O)c1ccccc1OCC(=O)Nc1ccc(Cl)c(Cl)c1`, for which the IC50 is > 100 µM (inactive) in test [2], > 100 µM (inactive) in test [3], 37.8 µM (active) on Caspase-3 and 10.4 µM (active) in [4]. For the same molecule, in test [5], the half-maximal effective concentration (EC50) was > 260 µM (inconclusive).
With `O=C(O)c1cccc(NC(=O)c2cccc(S(=O)(=O)N3CCc4ccccc43)c2)c1`, the IC50 in [2] is 23.7 µM (active); in [3] it was 24.4 µM (active); at Caspase-3, 90.5 µM (active); in test [4] it was 9.85 µM (active).
In the case of `COc1cc(NC(=O)c2cccc3c(-c4cnn(C)c4)coc23)cc(OC)c1OC`, the AC50 is 24.3 µM (active) in test [6] and 17.9 µM (active) in test [7]. In the test with H9c2, the IC50 is > 79 µM (inactive).
